The target in data set [1] is T1, porcine renal DHP-I (Sus scrofa, UniProt P22412).
T1 sequence (P22412 17-384): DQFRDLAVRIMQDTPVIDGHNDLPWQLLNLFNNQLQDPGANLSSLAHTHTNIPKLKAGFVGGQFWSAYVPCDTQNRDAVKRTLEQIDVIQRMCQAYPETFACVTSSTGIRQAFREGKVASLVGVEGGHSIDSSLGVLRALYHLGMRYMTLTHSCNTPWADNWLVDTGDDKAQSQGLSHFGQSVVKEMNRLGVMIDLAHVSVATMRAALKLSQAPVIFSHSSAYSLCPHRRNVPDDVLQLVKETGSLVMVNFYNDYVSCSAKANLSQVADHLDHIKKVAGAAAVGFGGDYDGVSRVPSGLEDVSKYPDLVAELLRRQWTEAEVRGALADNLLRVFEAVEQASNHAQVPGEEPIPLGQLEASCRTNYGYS
The experiment in a line: Test 2: stability against DHP-I (porcine). The conditions noted are these: partly purified Porcine DHP-I, 100 μg (titer)/ml, 37° C., HPLC.

Data set [2] addresses T2, mouse DHP-I (Mus musculus, UniProt P31428).
T2 sequence (P31428 17-384): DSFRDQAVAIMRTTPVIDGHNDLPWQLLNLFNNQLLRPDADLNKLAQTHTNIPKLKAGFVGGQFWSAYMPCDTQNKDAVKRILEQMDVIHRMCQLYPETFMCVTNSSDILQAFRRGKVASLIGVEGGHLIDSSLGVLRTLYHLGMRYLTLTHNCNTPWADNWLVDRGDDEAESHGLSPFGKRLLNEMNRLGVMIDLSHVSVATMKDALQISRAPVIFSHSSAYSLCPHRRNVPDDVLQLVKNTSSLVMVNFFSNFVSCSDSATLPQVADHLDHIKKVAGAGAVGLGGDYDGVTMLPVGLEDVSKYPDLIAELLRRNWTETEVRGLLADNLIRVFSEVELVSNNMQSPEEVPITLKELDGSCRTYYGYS
The experiment in a line: Test 2: stability against DHP-I (mouse). The conditions noted are these: partly purified Mouse DHP-I; 100 μg (titer)/ml; 37° C., 3 hours; HPLC.

Data set [3] deals with E. faecalis W-73. Nature of the data set: Test 1: Anti-Microbial Activities (MIC). It counts as cell-based. The conditions noted are these: inoculants 10^6 CFU/ml; for MIC: Enterococcus faecalis, W73, Sensitivity Disk agar-N+5% Horse blood, read-out: minimum inhibiting concentrations (MIC). The protocol: (§1) The minimum inhibiting concentrations (MIC, μg/ml) of the compounds according to the present invention to various pathogenic bacteria was measured in accordance with the method described in CHEMOTHERAPY, vol. 16, No. 1,99, 1968. The culture medium for measurement was Sensitivity Disk agar-N+5% Horse blood, and the amount of inoculants was 10^6 CFU/ml.

Data set [4] relates to H. influenzae PRC2. Nature of the data set: Test 1: Anti-Microbial Activities (MIC). The class given is cell-based. The conditions noted are these: Sensitivity Disk agar-N+5% Horse blood, inoculants 10^6 CFU/ml; for MIC: Haemophilus influenzae, read-out: minimum inhibiting concentrations (MIC). The protocol: as §1
Data set [5] has as its system P. vulgaris GN7919. The experiment in a line: Test 1: Anti-Microbial Activities (MIC). It counts as cell-based. The conditions noted are these: Sensitivity Disk agar-N+5% Horse blood, inoculants 10^6 CFU/ml; for MIC: Proteus vulgaris, read-out: minimum inhibiting concentrations (MIC). The protocol: as §1
The test system of data set [6] is K. pneumoniae PCI602. The experiment in a line: Test 1: Anti-Microbial Activities (MIC). It counts as cell-based. The conditions noted are these: Sensitivity Disk agar-N+5% Horse blood, inoculants 10^6 CFU/ml; for MIC: Klebsiella pneumoniae, read-out: minimum inhibiting concentrations (MIC). Here is the method:
as §1

Data set [7] deals with H. influenzae PRC44. The experiment in a line: Test 1: Anti-Microbial Activities (MIC). The conditions noted are these: Sensitivity Disk agar-N+5% Horse blood, inoculants 10^6 CFU/ml; for MIC: Haemophilus influenzae, read-out: minimum inhibiting concentrations (MIC). The class given is cell-based. The protocol:
as §1

Data set [8] deals with E. hirae ATCC8043. Nature of the data set: Test 1: Anti-Microbial Activities (MIC). The class given is cell-based. The conditions noted are these: Sensitivity Disk agar-N+5% Horse blood, inoculants 10^6 CFU/ml; for MIC: Enterococcus hirae, read-out: minimum inhibiting concentrations (MIC). The protocol:
as §1

In data set [9] the test system is S. pneumoniae PRC9. The experiment in a line: Test 1: Anti-Microbial Activities (MIC). It counts as cell-based. The conditions noted are these: S. pneumoniae PRC9, penicillin-hyperresistant strain (PRSP), Sensitivity Disk agar-N+5% Horse blood, inoculants 10^6 CFU/ml; for MIC: Streptococcus pneumoniae, read-out: minimum inhibiting concentrations (MIC). The protocol:
as §1

In data set [10] the test system is M. catarrhalis W-0500. Nature of the data set: Test 1: Anti-Microbial Activities (MIC). The class given is cell-based. The conditions noted are these: inoculants 10^6 CFU/ml; for MIC: Moraxella catarrhalis, W0500, Sensitivity Disk agar-N+5% Horse blood, read-out: minimum inhibiting concentrations (MIC). The protocol:
as §1

Data set [11] concerns S. epidermidis ATCC14990. Nature of the data set: Test 1: Anti-Microbial Activities (MIC). The class given is cell-based. The conditions noted are these: Sensitivity Disk agar-N+5% Horse blood, inoculants 10^6 CFU/ml; for MIC: Staphylococcus epidermidis, read-out: minimum inhibiting concentrations (MIC). The protocol: as §1
In data set [12] the test system is E. coli NIHJ JC-2. Nature of the data set: Test 1: Anti-Microbial Activities (MIC). It counts as cell-based. The conditions noted are these: inoculants 10^6 CFU/ml; for MIC: Escherichia coli, NIHJJC2, Sensitivity Disk agar-N+5% Horse blood, read-out: minimum inhibiting concentrations (MIC). The protocol:
as §1

The test system of data set [13] is S. aureus M126. The experiment in a line: Test 1: Anti-Microbial Activities (MIC). It counts as cell-based. The conditions noted are these: S. aureus M126, methicillin-hyperresistant strain (MRSA), Sensitivity Disk agar-N+5% Horse blood, inoculants 10^6 CFU/ml; for MIC: Staphylococcus aureus, read-out: minimum inhibiting concentrations (MIC). The protocol:
as §1

The test system of data set [14] is S. aureus 209P JC-1. Nature of the data set: Test 1: Anti-Microbial Activities (MIC). It counts as cell-based. The conditions noted are these: Sensitivity Disk agar-N+5% Horse blood, inoculants 10^6 CFU/ml; for MIC: Staphylococcus aureus, read-out: minimum inhibiting concentrations (MIC). The protocol: as §1
The test system of data set [15] is C. freundii GN346. The experiment in a line: Test 1: Anti-Microbial Activities (MIC). The conditions noted are these: Sensitivity Disk agar-N+5% Horse blood, inoculants 10^6 CFU/ml; for MIC: Citrobacter freundii, read-out: minimum inhibiting concentrations (MIC). It counts as cell-based. The protocol: as §1
Setting [16] is: Sensitivity Disk agar-N+5% Horse blood.

Values after ≈ are worked out from the molar mass of the structure shown.

This note sets out measurements from patent US6677331B2, “Carbapenem derivatives” (Meiji Seika Kaisha, Ltd., priority 1998, dated 2004).

As for `C[C@@H](O)[C@H]1C(=O)N2C(C(=O)O)=C(SCCN=CN)C[C@H]12` [Compound A, imipenem, reference compound], the “residual amounts (%) after 3 hours” value in [1] was less than 0.3%; in [2], 14%. Moreover, the MIC in data set [3] stood at 0.78 µg/mL (≈ 2.61 µM); in data set [4] it was 0.78 µg/mL (≈ 2.61 µM); in data set [5] it was 0.1 µg/mL (≈ 0.334 µM); in data set [6] it was 0.2 µg/mL (≈ 0.668 µM); in data set [7] it was 12.5 µg/mL (≈ 41.8 µM); in [8], 0.78 µg/mL (≈ 2.61 µM). Also, the MIC is 0.2 µg/mL (≈ 0.668 µM) in data set [9]; 0.05 µg/mL (≈ 0.167 µM) in [10]; less than 0.025 µg/mL in [11]; 0.1 µg/mL (≈ 0.334 µM) in [12]; 25 µg/mL (≈ 83.5 µM) in data set [13]; less than 0.025 µg/mL in data set [14]. Moreover, the MIC in data set [15] came out at 0.2 µg/mL (≈ 0.668 µM).
As to `C[C@@H](O)[C@H]1C(=O)N2C(C(=O)O)=C(S[C@@H]3CN[C@H](C(=O)N(C)C)C3)[C@H](C)[C@H]12` [Compound C, meropenem, reference compound], the “residual amounts (%) after 3 hours” value in data set [1] was determined as 41%; in data set [2], 8.5%.
Taken in the same sequence, the figures for `CC(=O)c1nc(C)n2cc(C3=C(C(=O)[O-])N4C(=O)[C@H]([C@@H](C)O)[C@H]4[C@H]3C)sc12.[Na+]` [Example 19, Sodium (1S,5R,6S)-2-(7-Acetyl-5-methylimidazo[5,1-b]thiazol-2-yl)-6-((1R)-1-hydroxyethyl)-1-methyl-1-carbapen-2-em-3-carboxylate] were 77% and 45%.
As to `C[C@@H](O)[C@H]1C(=O)N2C(C(=O)[O-])=C(c3cn4cnc([S+](C)[O-])c4s3)[C@H](C)[C@H]12.[Na+]` (stereo partly drawn) [Example 26, Sodium (1S,5R,6S)-6-((1R)-1-Hydroxyethyl)-2-(7-methanesulfinylimidazo[5,1-b]thiazol-2-yl)-1-methyl-1-carbapen-2-em-3-carboxylate], the “residual amounts (%) after 3 hours” value was 44% in data set [1] and 11% in data set [2]. The MIC in data set [3] was 0.39 µg/mL; in data set [4] it was less than 0.025 µg/mL; in [5], 0.2 µg/mL; in data set [6], 0.1 µg/mL; in data set [7], 0.05 µg/mL; in [8], 0.78 µg/mL. The MIC in data set [9] is 0.1 µg/mL; in data set [10], 0.05 µg/mL; in data set [11], less than 0.025 µg/mL; in data set [12] it was 0.05 µg/mL; in data set [13], 6.25 µg/mL; in [14] it was less than 0.025 µg/mL. Also, in data set [15], the MIC came to 1.56 µg/mL.
For the compound `CCC(=O)c1ncn2cc(C3=C(C(=O)[O-])N4C(=O)[C@H]([C@@H](C)O)[C@H]4C3)sc12.[Na+]` [Example 27, Sodium (5R,6S)-6-((1R)-1-Hydroxyethyl)-2-(7-propionylimidazo[5,1-b]thiazol-2-yl)-1-carbapen-2-em-3-carboxylate], the “residual amounts (%) after 3 hours” value was 38% in data set [1] and 1.2% in data set [2]. Further, the MIC in data set [3] is 0.1 µg/mL; in data set [4] it was less than 0.025 µg/mL; in [5], 0.2 µg/mL; in data set [6], 0.1 µg/mL; in [7] it was 0.05 µg/mL; in data set [8], 0.39 µg/mL. For the same compound, the MIC is 0.05 µg/mL in [9]; less than 0.025 µg/mL in [10]; 0.05 µg/mL in [11]; 0.2 µg/mL in data set [12]; 0.78 µg/mL in [13]; 0.05 µg/mL in [14]. Besides, in data set [15], the MIC is 0.39 µg/mL.
In the case of `C[C@@H](O)[C@H]1C(=O)N2C(C(=O)[O-])=C(c3cn4cnc(C(=O)CO)c4s3)[C@H](C)[C@H]12.[Na+]` [Example 71, Sodium (1S,5R,6S)-2-(7-Hydroxyacetylimidazo[5,1-b]thiazol-2-yl)-6-((1R)-1-hydroxyethyl)-1-methyl-1-carbapen-2-em-3-carboxylate], the “residual amounts (%) after 3 hours” value is listed as 33% in [1] and less than 0.1% in data set [2]. For the same compound, the MIC was 0.39 µg/mL in data set [3]; less than 0.025 µg/mL in [4]; less than 0.025 µg/mL in [5]; less than 0.025 µg/mL in data set [6]; 0.05 µg/mL in data set [7]; 0.39 µg/mL in [8]. For the same compound, the MIC in [9] is 0.1 µg/mL; in [10] it was less than 0.025 µg/mL; in data set [11], less than 0.025 µg/mL; in data set [12], less than 0.025 µg/mL; in [13], 3.13 µg/mL; in [14], less than 0.025 µg/mL. Moreover, the MIC in [15] was found to be 0.39 µg/mL.
With “(1R,5S,6S)-6-((1R)-1-hydroxyethyl)-1-methyl-2-[(3S,5S)-5-(6-methylimidazo[5,1-b]thiazolium-2-yl)methylpyrrolidin-3-yl]thiocarbapen-2-em-3-carboxylic acid iodide [Compound B, reference compound]”, the “minimum inhibiting concentrations (MIC)” value in data set [3] (setting [16]) stood at 3.13 µg/mL; in data set [4], 0.10 µg/mL; in data set [5], 0.10 µg/mL; in data set [6] it was 0.10 µg/mL; in data set [7], 0.78 µg/mL; in [8] it was 1.56 µg/mL. Besides, the “minimum inhibiting concentrations (MIC)” value in data set [9] was 0.39 µg/mL; in data set [10] (setting [16]), less than 0.025 µg/mL; in data set [11], 0.05 µg/mL; in data set [12] (setting [16]) it was 0.05 µg/mL; in [13], 6.25 µg/mL; in [14] it was less than 0.025 µg/mL. Moreover, the “minimum inhibiting concentrations (MIC)” value in [15] amounted to 0.10 µg/mL.
